# Assay results taken from patent publication US20080221548A1, “Eradication of Pigmentation and Scar Tissue” (priority 2005, published 2008).
# Tests used:
# [1] = Experiment 1: removal of tattoo pigmentation with different solutions while puncturing the skin; assay type: in vivo, pig
# Method: A number of tattoos were applied to the skin of a pig. Each of the tattoos was a square having dimensions approximately 1 cm×1 cm filled with a solid blue-grey color. […] FIG. 3 is a reproduction of a photograph taken 14 days after four of these tattooed areas were treated according to the method of the invention using different types of solution. Square 1 was treated using distilled water and essentially no color reduction was observed. Square 2 was treated using a 2% aqueous solution of salicylic acid. […] Square 3 was treated using a solution containing 17% EDTA.
# [2] = Experiment 2: treatment of tattooed squares by skin puncturing with salicylic acid rinse; assay type: in vivo, pig; settings: 5% aqueous solution of salicylic acid, 10 cc/cm^2, three minutes puncturing, five squares; eighteen days later
# Method: A number of tattoos were applied to the skin of a pig. Each of the tattoos was a square having dimensions approximately 1 cm×1 cm filled with a solid blue-grey color. Two months after the tattoos were applied each of the five squares labeled 1 to 5 on the photograph shown in FIG. 4A was treated according to the method of the invention. The treatment for each square consisted of repeatedly puncturing the skin with the device described hereinabove for three minutes. As the machine was operated, the needles and skin surface were cyclically rinsed with a 5% aqueous solution of salicylic acid. A total of 10 cc of solution was used for each square (i.e. 10 cc/cm^2). Following this initial treatment no further treatment was applied to these five locations.
# [3] = Experiment 3: treatment of a pigmented area of skin surrounding a scab by skin puncturing with salicylic acid rinse; assay type: in vivo; settings: 5% aqueous solution of salicylic acid, ~10 cc/cm^2, ten minutes puncturing; fourteen days after treatment
# Method: In FIG. 5A is shown a photograph of an area of skin on which there is a reddish-purple pigmented area surrounding brown colored scab. The pigmented area surrounding the scab was treated using the method described above by repeatedly puncturing the skin for ten minutes. During the treatment 10 cc of a 5% aqueous solution of salicylic acid (˜10 cc/cm^2) was used to clean the needles and surface of the skin. A dry bandage was placed over the treated area for a few days to keep the site clean, but no medication was applied. After this the skin was left unattended. […] Although embodiments of the invention have been described by way of illustration, it will be understood that the invention may be carried out with many variations, modifications, and adaptations, without departing from its spirit or exceeding the scope of the claims.
smiles,measurement,setting,value
O=C(O)c1ccccc1O [salicylic acid],color reduction,"[1]; 2% aqueous solution of salicylic acid, 1 cm x 1 cm blue-grey tattoo square 2, 14 days after treatment plus a few days",approximately 90%
same,scar after treatment,"[1]; 2% aqueous solution of salicylic acid, square 2, a few days after the 14-day photograph",vanished leaving no trace
same,tattoo color after treatment,[2],all of the original blue-grey color has disappeared
same,color of the pigmented area after treatment,[3],changed to a color slightly greyer than the natural skin color
same,scar tissue after treatment,[3],gone
O=C(O)CN(CCN(CC(=O)O)CC(=O)O)CC(=O)O [EDTA],scar after treatment,"[1]; solution containing 17% EDTA, square 3",did not vanish
same,color reduction,"[1]; solution containing 17% EDTA, tattoo square 3, 14 days after treatment",60%
OO [H2O2],reduction in color,"[1]; H2O2, tattoo square 4, 14 days after treatment",40-60%
